Data taken from PubChem BioAssay (NCI).
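In this assay, cells in 96-well plates receive the compound at five concentrations for 48 hours. Endpoints are linearly interpolated between the surrounding concentrations. At the GI50, growth is halved. TGI: concentration producing complete growth inhibition.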

Legend:
Assay in all cases: DTP human tumour cell line panel, 48 h
SN12C renal = system: SN12C renal
UACC-62 melanoma = system: UACC-62 melanoma
ACHN renal = system: ACHN renal
SNB-75 CNS = system: SNB-75 CNS
MOLT-4 leukemia = system: MOLT-4 leukemia
SR leukemia = system: SR leukemia
NCI-H226 lung = system: NCI-H226 lung
HCT-116 colon = system: HCT-116 colon
COLO 205 colon = system: COLO 205 colon

Structure (SMILES) | GI50 (SN12C renal) | TGI (SN12C renal) | GI50 (UACC-62 melanoma) | TGI (UACC-62 melanoma) | GI50 (ACHN renal) | TGI (ACHN renal) | GI50 (SNB-75 CNS) | TGI (SNB-75 CNS) | GI50 (MOLT-4 leukemia) | TGI (MOLT-4 leukemia) | GI50 (SR leukemia) | TGI (SR leukemia) | GI50 (NCI-H226 lung) | TGI (NCI-H226 lung) | GI50 (HCT-116 colon) | TGI (HCT-116 colon) | GI50 (COLO 205 colon) | TGI (COLO 205 colon)
CC(=O)Nc1ccc(S(=O)(=O)NNC(=O)c2cccnc2Nc2ccc(Cl)cc2)cc1 | 59.3 µM | > 100 µM | 8.85 µM | > 100 µM | 52.2 µM | > 100 µM | 5.54 µM | > 100 µM | 49.6 µM | > 100 µM | 6.35 µM | > 100 µM | 42.3 µM | > 100 µM | 7.22 µM | > 100 µM | 10.3 µM | 57 µM
C=C1C(=O)O[C@H]2C[C@@]3(C)[C@H](O)CCC(=C)[C@@H]3[C@@H](OC(C)=O)[C@H]12 |  | 29.5 µM |  | 37.3 µM |  | 12.9 µM |  | 29.2 µM |  | > 31 µM |  | > 20 µM |  | 49.2 µM |  | 22.2 µM |  | 7.06 µM
COC(=O)C1=C(CS(=O)c2ccccc2[N+](=O)[O-])ON(C)C1c1ccccc1 (centres undefined) |  | 42.6 µM |  | > 100 µM |  | > 100 µM |  | 84.5 µM |  | > 100 µM |  |  |  | > 100 µM |  | > 100 µM |  | > 100 µM
COC(=O)CCCCCN=Cc1c(O)c(O)c(C(C)C)c2cc(C)c(-c3c(C)cc4c(C(C)C)c(O)c(O)c(C=NCCCCCC(=O)OC)c4c3O)c(O)c12 | 1.3 µM | > 32.5 µM |  |  | 1.42 µM | > 32.5 µM | 2.55 µM | > 32.5 µM | 1.05 µM | 16.5 µM | 1.09 µM | 9.61 µM | 3.15 µM | 19 µM | 1.23 µM | > 32.5 µM | 1.18 µM | 13.2 µM
COc1ccc(Cn2c(Cl)c(/C=C3/C(=O)Nc4ccccc43)c3cc(OC)c(C)cc32)cc1 | 8.17 µM | > 100 µM | 2.17 µM | 18.7 µM | 8.11 µM | > 100 µM |  |  | 5.55 µM | > 100 µM |  |  | 2.92 µM | 8.32 µM | 3.77 µM | 39.1 µM | 2.33 µM | 5.52 µM
Cc1nc(C(N)=S)sc1C(=O)C/C(=N/N)C(=O)Nc1cccc(Cl)c1C |  | > 100 µM |  | > 100 µM |  | > 100 µM |  | > 100 µM |  | > 100 µM |  | > 100 µM |  | > 100 µM |  | > 100 µM |  | 
Cc1cc2c(=O)c3ccccc3[nH]c2c(C(=O)O)c1C |  | > 100 µM |  | > 100 µM |  | > 100 µM |  | > 100 µM |  | > 100 µM |  | > 100 µM |  |  |  | > 100 µM |  | > 100 µM
O=C1CCC(O)=C1O |  | > 100 µM |  | > 100 µM |  | > 100 µM |  | > 100 µM |  | > 100 µM |  |  |  | > 100 µM |  | > 100 µM |  | > 100 µM
Cc1cc(=O)oc2cc(O)c(CN(C)CC(=O)O)cc12 |  | > 100 µM |  | > 100 µM |  | > 100 µM |  | > 100 µM |  |  |  | > 100 µM |  | > 100 µM |  | > 100 µM |  | > 100 µM
S=c1nc(-c2cccnc2)[nH][nH]1 |  | > 100 µM |  |  |  | > 100 µM |  | > 100 µM |  |  |  | > 100 µM |  |  |  | > 100 µM |  | > 100 µM
COc1ccc(/C=C2\C(=O)N(C(=O)Cc3ccccc3)N=C2C)cc1OC |  | > 100 µM |  |  |  | > 100 µM |  | > 100 µM |  | > 100 µM |  | > 100 µM |  | > 100 µM |  | > 100 µM |  | > 100 µM
O=C(OC[C@H]1O[C@@H](OC(=O)c2cc(O)c(O)c(O)c2)[C@H](OC(=O)c2cc(O)c(O)c(O)c2)[C@@H](OC(=O)c2cc(O)c(O)c(O)c2)[C@@H]1OC(=O)c1cc(O)c(O)c(O)c1)c1cc(O)c(O)c(O)c1 |  | > 100 µM |  | 6.44 µM |  | 30.1 µM |  |  |  | 86.5 µM |  | > 100 µM |  | 7.98 µM |  | 16.8 µM |  | 46.3 µM
Cc1c2ccc(N(C)c3ccnc(Nc4cccc(S(N)(=O)=O)c4)n3)cc2nn1C | 8.75 µM | > 25 µM | 8.38 µM | > 25 µM | 8.12 µM | > 25 µM | 4.33 µM | > 22.9 µM | 8.81 µM | > 23.6 µM |  |  | 6.2 µM | > 25 µM | 8.23 µM | > 25 µM | 12.5 µM | > 25 µM
O=[N+]([O-])c1nccn1COCCBr |  | > 100 µM |  | > 100 µM |  | > 100 µM |  | > 100 µM |  | > 100 µM |  | > 100 µM |  | > 100 µM |  | > 100 µM |  | 
C=C(C=O)CCCC(C)[C@@H]1CCC23CC12CCC1[C@@]2(C)CCC(OC(C)=O)C(C)(C)C2CC(OC2OC(COC(C)=O)C(O)C(O)C2O)[C@]13C (some centres undefined) |  | 5.77 µM |  | 3.49 µM |  | 9.78 µM |  | 11.4 µM |  | 3.03 µM |  |  |  | 12.8 µM |  | 1.43 µM |  | 14.4 µM
O=c1[nH]c(=O)n(C2OC3COC2C3O)cc1F (centres undefined) |  | > 100 µM |  |  |  | > 100 µM |  | > 100 µM |  | > 100 µM |  |  |  | > 100 µM |  |  |  | > 100 µM
C[N+]1(C)C/C(=C\c2ccncc2)C(=O)/C(=C/c2ccncc2)C1 |  | > 100 µM |  | > 100 µM |  | > 100 µM |  | > 100 µM |  | > 100 µM |  | > 100 µM |  |  |  | > 100 µM |  | > 100 µM
COc1cc(Br)c(C=Nc2cccc3ccc(OS(=O)(=O)c4cccc([N+](=O)[O-])c4)cc23)cc1OC |  | > 100 µM |  | > 100 µM |  | > 100 µM |  |  |  | > 100 µM |  | > 100 µM |  | 84.1 µM |  | > 100 µM |  | > 100 µM
CCOC(=O)c1cc(/C=C/C(C)=C/C(=O)OC)n(C)c1C |  | > 100 µM |  | > 100 µM |  | > 100 µM |  |  |  | > 100 µM |  |  |  | > 100 µM |  |  |  | > 100 µM
O=[N+]([O-])c1ccc2c(c1)[O][Sn][O]2 | > 150 µg/mL | > 150 µg/mL | 8.32 µg/mL | > 150 µg/mL | 139 µg/mL | > 150 µg/mL | > 150 µg/mL | > 150 µg/mL | 33 µg/mL | > 150 µg/mL |  |  | 29 µg/mL | > 150 µg/mL | 45.3 µg/mL | > 150 µg/mL | 62.5 µg/mL | > 150 µg/mL
COC(=O)c1nc(N)[nH]c(=O)c1CCCCCc1c(C(=O)OC)nc(N)[nH]c1=O |  | > 50 µM |  | > 50 µM |  | > 50 µM |  | > 50 µM |  |  |  |  |  |  |  | > 50 µM |  | > 50 µM
CCOC(=O)CC1NC(=O)CS1 (centres undefined) |  | > 100 µM |  | > 100 µM |  | > 100 µM |  | > 100 µM |  | > 100 µM |  |  |  | 48.1 µM |  | 61.7 µM |  | 16.3 µM
